# Laboratory results: patent US20060216775A1, “Compositions and methods for analysis and manipulation of enzymes in biosynthetic proteomes” (priority 2003, published 2006)
# Target: T1, VibB (UniProt P0C6D3+P39135)
# T1 construct: made in house; host or cells: E. coli BL21 (DE3), crude lysate
# Assay type: biochemical, Vibrio cholera
# Details: cell lysate of E. coli BL21 producing VibB, recombinant Sfp, SDS-PAGE, UV irradiation
# Description: To investigate PPTase transfer of non-thioester CoA derivatives, Sfp was used for post-translational modification of known, heterologously expressed CP domains (FIG. 11). As a first experiment, VibB was used. VibB is a small protein from the Vibrio cholera vibriobactin biosynthetic machinery that consists of a modular NRP synthase system. VibB contains only one carrier protein domain and as such is a perfect model system due to its small size and facile expression in E. coli. Cell lysate was collected from induced E. coli BL21 cells producing VibB from a pET24 expression vector. An aliquot of this lysate was incubated with CoA-BODIPY derivative and recombinant Sfp and analyzed by SDS-PAGE. […] Coomassie staining of the gel confirmed the band to be fluorescently-tagged VibB (32.6 kD) (FIG. 11C). […]
# One Liter of E. Coli BL21 (DE3) cells induced to express recombinant VibB, FrenACP, OtcACP, and TcmACP, each in pET22b vectors (Novagen, Madison, Wis.), were pelleted, resuspended, and lysed by sonication in 30 mL 0.1 M Tris-Cl pH 8.0 with 1% glycerol in the presence of 500 μL of a 10 mM protease inhibitor cocktail containing bestatin, pepstatin A, E-64, and phosphoramidon (Sigma-Aldrich) and sonicated by pulsing for 5 minutes on ice. […] Protein concentration was determined using the Bradford method with bovine serum albumin (Sigma-Aldrich) as a standard.
# T1 sequence (P39135 whole entry): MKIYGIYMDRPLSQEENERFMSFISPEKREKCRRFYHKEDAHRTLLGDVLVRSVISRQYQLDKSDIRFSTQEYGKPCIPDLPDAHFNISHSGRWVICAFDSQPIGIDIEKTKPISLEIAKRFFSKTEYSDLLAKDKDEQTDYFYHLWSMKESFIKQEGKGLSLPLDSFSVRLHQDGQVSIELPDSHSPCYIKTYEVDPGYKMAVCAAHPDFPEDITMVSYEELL
# T1 sequence (P0C6D3 whole entry): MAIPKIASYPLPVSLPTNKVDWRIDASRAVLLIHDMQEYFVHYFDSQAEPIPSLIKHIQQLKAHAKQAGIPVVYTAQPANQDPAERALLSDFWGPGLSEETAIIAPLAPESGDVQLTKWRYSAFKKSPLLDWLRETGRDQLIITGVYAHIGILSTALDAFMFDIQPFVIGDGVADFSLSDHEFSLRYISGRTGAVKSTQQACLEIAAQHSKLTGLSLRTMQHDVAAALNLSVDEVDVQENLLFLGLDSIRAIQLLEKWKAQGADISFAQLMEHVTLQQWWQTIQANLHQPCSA
compound,measurement,value
"O=C(O)c1cc(N2C(=O)C=CC2=O)ccc1-c1c2cc(F)c(=O)cc-2oc2cc(O)c(F)cc12 [1b, Oregon Green® 488 maleimide]",fluorescent labeling of VibB,Comparable labeling
